Test results reported in patent US20250230193A1, “CYCLIC COMPOUND HAVING SELECTIVE KRAS INHIBITORY EFFECT ON HRAS AND NRAS” (CHUGAI SEIYAKU KABUSHIKI KAISHA, priority 2022, published 2025).

Legend:
[1] = biological target: GDP-bound NRAS wild-type protein (Homo sapiens, UniProt P01111); assay: Binding to NRAS by surface plasmon resonance (SPR), Single Cycle Kinetics; settings: SPR, GDP-bound NRAS wild-type vs GDP-bound KRAS wild-type
[2] = biological target: GDP-bound HRAS wild-type protein (Homo sapiens, UniProt P01112); assay: Binding to HRAS by surface plasmon resonance (SPR), Single Cycle Kinetics; settings: SPR, GDP-bound HRAS wild-type vs GDP-bound KRAS wild-type
Sequence of GDP-bound HRAS wild-type protein (P01112 whole entry): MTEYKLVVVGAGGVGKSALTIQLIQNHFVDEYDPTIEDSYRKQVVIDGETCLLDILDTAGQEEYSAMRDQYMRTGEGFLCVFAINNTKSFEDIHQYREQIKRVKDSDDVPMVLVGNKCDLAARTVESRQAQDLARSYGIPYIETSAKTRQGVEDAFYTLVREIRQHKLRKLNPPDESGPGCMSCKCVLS

Sequence of GDP-bound NRAS wild-type protein (P01111 whole entry): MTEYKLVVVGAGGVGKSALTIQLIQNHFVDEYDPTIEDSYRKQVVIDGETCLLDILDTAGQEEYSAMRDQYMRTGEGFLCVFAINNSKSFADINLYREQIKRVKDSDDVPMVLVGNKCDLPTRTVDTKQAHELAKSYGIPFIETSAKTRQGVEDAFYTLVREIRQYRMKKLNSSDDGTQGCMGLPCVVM

| Compound | NRAS/KRAS (ratio of KD value with respect to NRAS to KD value with respect to KRAS) [1] | HRAS/KRAS (ratio of KD value with respect to HRAS to KD value with respect to KRAS) [2] |
| --- | --- | --- |
| CC[C@H](C)[C@@H]1NC(=O)[C@H](C2CC2)N(C)C(=O)C[C@@H](C(=O)N(C)CC)N(C)C(=O)[C@H](C2CCCC2)N(C)C(=O)C2(CCC2)NC(=O)[C@@H]2C[C@H](C)CN2C(=O)[C@H](CCc2cc(F)c(C(F)(F)F)c(F)c2)NC(=O)CN(C)C(=O)[C@H](Cc2ccc(C(F)(F)F)cc2)N2CC/C=C\C[C@@H](C2=O)N(C)C(=O)CN(C)C1=O [PP2080] | A (a compound having 10 or more and less than 20 is denoted as A) | A (a compound having 10 or more and less than 20 is denoted as A) |
| CCCN(C)C(=O)[C@@H]1CC(=O)N(C)[C@@H](C2CC2)C(=O)N[C@@H]([C@@H](C)CC)C(=O)N(C)CC(=O)N(C)[C@H]2C/C=C\CCN(C2=O)[C@@H](Cc2ccc(C(F)(F)F)cc2)C(=O)N(C)CC(=O)N[C@@H](CCc2cc(F)c(C(F)(F)F)c(F)c2)C(=O)N2C[C@@H](C)C[C@H]2C(=O)NC2(CCC2)C(=O)N(C)[C@@H](C2CCCC2)C(=O)N1C [PP2081] | A (a compound having 10 or more and less than 20 is denoted as A) | A (a compound having 10 or more and less than 20 is denoted as A) |
| CC[C@H](C)[C@@H]1NC(=O)[C@H](C2CCC2)N(C)C(=O)C[C@@H](C(=O)N(C)CC)N(C)C(=O)[C@H](C2CCCC2)N(C)C(=O)C2(CCC2)NC(=O)[C@@H]2C[C@H](C)CN2C(=O)[C@H](CCc2cc(F)c(C(F)(F)F)c(F)c2)NC(=O)CN(C)C(=O)[C@H](Cc2ccc(C(F)(F)F)cc2)N2CC/C=C\C[C@@H](C2=O)N(C)C(=O)CN(C)C1=O [PP2082] | AA (a compound having 20 or more is denoted as AA) | A (a compound having 10 or more and less than 20 is denoted as A) |
| CCCN(C)C(=O)[C@@H]1CC(=O)N(C)[C@@H](C2CCC2)C(=O)N[C@@H]([C@@H](C)CC)C(=O)N(C)CC(=O)N(C)[C@H]2C/C=C\CCN(C2=O)[C@@H](Cc2ccc(C(F)(F)F)cc2)C(=O)N(C)CC(=O)N[C@@H](CCc2cc(F)c(C(F)(F)F)c(F)c2)C(=O)N2C[C@@H](C)C[C@H]2C(=O)NC2(CCC2)C(=O)N(C)[C@@H](C2CCCC2)C(=O)N1C [PP2083] | A (a compound having 10 or more and less than 20 is denoted as A) | B (a compound having 3 or more and less than 10 is denoted as B) |
| C#CCN1CC(=O)N(C)[C@H]2C/C=C\CCN(C2=O)[C@@H](Cc2ccc(C(F)(F)F)cc2)C(=O)N(C)CC(=O)N[C@@H](CCc2cc(F)c(C(F)(F)F)c(F)c2)C(=O)N2C[C@H](OCC)C[C@H]2C(=O)NC2(CC(C)(C)C2)C(=O)N(C)[C@@H](C2CCCC2)C(=O)N(C)[C@H](C(=O)N(C)C)CC(=O)N(C)[C@@H](CC)C(=O)N[C@@H]([C@@H](C)CC)C1=O [PP2087] | A (a compound having 10 or more and less than 20 is denoted as A) | A (a compound having 10 or more and less than 20 is denoted as A) |
| C#CCN1CC(=O)N(C)[C@H]2C/C=C\CCN(C2=O)[C@@H](Cc2ccc(C(F)(F)F)cc2)C(=O)N(C)CC(=O)N[C@@H](CCc2ccc(C(F)(F)F)c(OC)c2)C(=O)N2C[C@H](OCC)C[C@H]2C(=O)NC2(CC(C)(C)C2)C(=O)N(C)[C@@H](C2CCCC2)C(=O)N(C)[C@H](C(=O)N(C)C)CC(=O)N(C)[C@@H](CC)C(=O)N[C@@H]([C@@H](C)CC)C1=O [PP2091] | A (a compound having 10 or more and less than 20 is denoted as A) | B (a compound having 3 or more and less than 10 is denoted as B) |
| CCC[C@H]1C(=O)N[C@@H]([C@@H](C)CC)C(=O)N(C2CC2)CC(=O)N(C)[C@H]2C/C=C\CCN(C2=O)[C@@H](Cc2ccc(C)cc2)C(=O)N(C)CC(=O)N[C@@H](CCc2cc(F)c(C(F)(F)F)c(F)c2)C(=O)N2C[C@H](OCC)C[C@H]2C(=O)NC2(CC(C)(C)C2)C(=O)N(C)[C@@H](C2CCCC2)C(=O)N(C)[C@H](C(=O)N(C)C)CC(=O)N1C [PP2093, (2S,8S,12R,14S,20S,23S,27S,30S,36S,38Z)-20-cyclopentyl-32-cyclopropyl-8-[2-[3,5-difluoro-4-(trifluoromethyl)phenyl]ethyl]-12-ethoxy-N,N,3′,3′,4,19,22,26,35-nonamethyl-30-[(1S)-1-methylpropyl]-3,6,9,15,18,21,25,28,31,34,42-undecaoxo-27-propyl-2-(p-tolylmethyl)spiro[1,4,7,10,16,19,22,26,29,32,35-undecazatricyclo[34.5.1.0^10,14]dotetracont-38-ene-17,1′-cyclobutane]-23-carboxamide] | A (a compound having 10 or more and less than 20 is denoted as A) | A (a compound having 10 or more and less than 20 is denoted as A) |
| C=CCN1CC(=O)N(C)[C@H]2C/C=C\CCN(C2=O)[C@@H](Cc2ccc(C)cc2)C(=O)N(C)CC(=O)N[C@@H](CCc2cc(F)c(C(F)(F)F)c(F)c2)C(=O)N2C[C@H](OCC)C[C@H]2C(=O)NC2(CC(C)(C)C2)C(=O)N(C)[C@@H](C2CCCC2)C(=O)N(C)[C@H](C(=O)N(C)C)CC(=O)N(C)[C@@H](CCC)C(=O)N[C@@H]([C@@H](C)CC)C1=O [PP2094] | A (a compound having 10 or more and less than 20 is denoted as A) | A (a compound having 10 or more and less than 20 is denoted as A) |
| C#CCN1CC(=O)N(C)[C@H]2C/C=C\CCN(C2=O)[C@@H](Cc2ccc(C)cc2)C(=O)N(C)CC(=O)N[C@@H](CCc2cc(F)c(C(F)(F)F)c(F)c2)C(=O)N2C[C@H](OCC)C[C@H]2C(=O)NC2(CC(C)(C)C2)C(=O)N(C)[C@@H](C2CCCC2)C(=O)N(C)[C@H](C(=O)N(C)C)CC(=O)N(C)[C@@H](CCC)C(=O)N[C@@H]([C@@H](C)CC)C1=O [PP2095] | A (a compound having 10 or more and less than 20 is denoted as A) | A (a compound having 10 or more and less than 20 is denoted as A) |
| CCCN1CC(=O)N(C)[C@H]2C/C=C\CCN(C2=O)[C@@H](Cc2ccc(C)cc2)C(=O)N(C)CC(=O)N[C@@H](CCc2ccc(C(F)(F)F)c(OC)c2)C(=O)N2C[C@H](OCC)C[C@H]2C(=O)NC2(CC(C)(C)C2)C(=O)N(C)[C@@H](C2CCCC2)C(=O)N(C)[C@H](C(=O)N(C)C)CC(=O)N(C)[C@@H](CC)C(=O)N[C@@H]([C@@H](C)CC)C1=O [PP2096] | A (a compound having 10 or more and less than 20 is denoted as A) | A (a compound having 10 or more and less than 20 is denoted as A) |
| CCC[C@H]1C(=O)N[C@@H]([C@@H](C)CC)C(=O)N(C2CC2)CC(=O)N(C)[C@H]2C/C=C\CCN(C2=O)[C@@H](Cc2ccc(C)cc2)C(=O)N(C)CC(=O)N[C@@H](CCc2ccc(C(F)(F)F)c(OC)c2)C(=O)N2C[C@H](OCC)C[C@H]2C(=O)NC2(CC(C)(C)C2)C(=O)N(C)[C@@H](C2CCCC2)C(=O)N(C)[C@H](C(=O)N(C)C)CC(=O)N1C [PP2097] | A (a compound having 10 or more and less than 20 is denoted as A) | A (a compound having 10 or more and less than 20 is denoted as A) |
| C=CCN1CC(=O)N(C)[C@H]2C/C=C\CCN(C2=O)[C@@H](Cc2ccc(C)cc2)C(=O)N(C)CC(=O)N[C@@H](CCc2ccc(C(F)(F)F)c(OC)c2)C(=O)N2C[C@H](OCC)C[C@H]2C(=O)NC2(CC(C)(C)C2)C(=O)N(C)[C@@H](C2CCCC2)C(=O)N(C)[C@H](C(=O)N(C)C)CC(=O)N(C)[C@@H](CCC)C(=O)N[C@@H]([C@@H](C)CC)C1=O [PP2098] | A (a compound having 10 or more and less than 20 is denoted as A) | A (a compound having 10 or more and less than 20 is denoted as A) |
| C#CCN1CC(=O)N(C)[C@H]2C/C=C\CCN(C2=O)[C@@H](Cc2ccc(C)cc2)C(=O)N(C)CC(=O)N[C@@H](CCc2ccc(C(F)(F)F)c(OC)c2)C(=O)N2C[C@H](OCC)C[C@H]2C(=O)NC2(CC(C)(C)C2)C(=O)N(C)[C@@H](C2CCCC2)C(=O)N(C)[C@H](C(=O)N(C)C)CC(=O)N(C)[C@@H](CCC)C(=O)N[C@@H]([C@@H](C)CC)C1=O [PP2099] | A (a compound having 10 or more and less than 20 is denoted as A) | A (a compound having 10 or more and less than 20 is denoted as A) |
| CCC[C@H]1C(=O)N[C@@H]([C@@H](C)CC)C(=O)N(C2CC2)CC(=O)N(C)[C@H]2C/C=C\CCN(C2=O)[C@@H](Cc2ccc(C(F)(F)F)cc2)C(=O)N(C)CC(=O)N[C@@H](CCc2cc(F)c(C(F)(F)F)c(F)c2)C(=O)N2C[C@H](OCC)C[C@H]2C(=O)NC2(CC(C)(C)C2)C(=O)N(C)[C@@H](C2CCCC2)C(=O)N(C)[C@H](C(=O)N(C)C)CC(=O)N1C [PP2101] | A (a compound having 10 or more and less than 20 is denoted as A) | B (a compound having 3 or more and less than 10 is denoted as B) |
